Marks after values point to notes of the source that are not given here.
Conditions: pH 2.7

SMILES | Log P
CCOC(=O)C(C#N)=C(Nc1ccccc1Sc1ccc(C)cc1)c1cc(C)oc1C [Compound 419] | 5.08^[a]
COC(=O)C(C#N)=C(NC1COC1)c1cccnc1Cl [Compound 120] | 1.35^[a]
CCOC(=O)C(C#N)=C(Nc1ccc(OC(F)F)cc1)c1ccsc1Br [Compound 532] | 3.73^[a]
CCOC(=O)C(C#N)=C(NC(C(=O)OC)C(C)C)c1sc(C)nc1C(F)(F)F (racemic) [Compound 681] | 3.64^[a]
CCOC(=O)C(C#N)=C(NC(C)CCc1ccccc1)c1sccc1C(F)(F)F (stereo not drawn) [Compound 437] | 4.56^[a]
CCOC(=O)C(C#N)=C(NC(C)C1CCCO1)c1sc(C)nc1C(F)(F)F (stereo not drawn) [Compound 193] | 3.29^[a]
C=Cc1nn(C)cc1C(NC(C(=O)OC)C(C)C)=C(C#N)C(=O)OCC (stereo not drawn) [Compound 719] | 2.94^[a]
CCOC(=O)C(C#N)=C(NC(C(=O)OC)C(C)C)c1sccc1C(F)(F)F (racemic) [Compound 658] | 3.62^[a]
CCOC(=O)C(C#N)=C(NC(C)c1cccc(Cl)c1)c1cccnc1Cl (stereo not drawn) [Compound 1152] | 3.83^[a]
CCOC(=O)C(C#N)=C(NC(C)c1ccc(Cl)cc1)c1sccc1Br (stereo not drawn) [Compound 365] | 4.42^[a]
COC(=O)C(C#N)=C(NC(C)(C)C)c1cccnc1Cl [Compound 775] | 2.31^[a]
CCOC(=O)C(C#N)=C(NC(C)c1nccs1)c1c(C)nn(C)c1Cl (stereo not drawn) [Compound 98] | 2.52^[a]
C=Cc1nn(C)cc1C(NC(C)CF)=C(C#N)C(=O)OCC (stereo not drawn) [Compound 749] | 2.25^[a]
CCOC(=O)C(C#N)=C(NC(C)C1CC=CCC1)c1cccnc1Cl (stereo not drawn) [Compound 760] | 3.9^[a]
CCOC(=O)C(C#N)=C(NC(C)C(C)C)c1cccnc1C(F)(F)F (stereo not drawn) [Compound 970] | 3.62^[a]
CCOC(=O)C(C#N)=C(NC(C)CN(C)C)c1c(C)nn(C)c1Cl (stereo not drawn) [Compound 605] | 1.13^[a]
CCC(C)OC(=O)C1(NC(=C(C#N)C(=O)OC)c2cccnc2Cl)CC1 (stereo not drawn) [Compound 621] | 2.23^[a]

Next, values leading:

Log P | SMILES
1.58^[a] | CC(C)C(C)NC(=C(C#N)C(=O)Nc1ccncc1)c1cccnc1Cl (stereo not drawn) [Compound 1515]
3.02^[a] | CCOC(=O)C(C#N)=C(NC(C)C1CC1)c1ccnc2ccccc12 (racemic) [Compound 1500]
4.62^[a] | CCOC(=O)C(C#N)=C(NC(C)CCCC(C)C)c1cccnc1Cl (stereo not drawn) [Compound 1187]
3.61^[a] | CCCC(C)NC(=C(C#N)C(=O)OC)c1sc(C)nc1C(F)(F)F (stereo not drawn) [Compound 866]
3.46^[a] | CCOC(=O)C(C#N)=C(NC(C)COC)c1ccnc(C(F)(F)F)c1Cl (stereo not drawn) [Compound 1623]
3.29^[a] | CCCc1nccc(C(NC(C)c2ccccn2)=C(C#N)C(=O)OCC)c1Cl (racemic) [Compound 1397]
3.44^[a] | CCOC(=O)C(C#N)=C(NC1CCCC1OCC)c1cccnc1Cl (stereo not drawn) [Compound 1373]
2.62^[a] | CCNC(=O)C(C#N)=C(NC(C)c1nccs1)c1ccnc(Br)c1Cl (stereo not drawn) [Compound 1305]
3.02^[a] | CCOC(=O)C(C#N)=C(NC(C)c1nccs1)c1ccnc(Br)c1Cl (stereo not drawn) [Compound 1290]
3.29^[a] | CCOC(=O)C(C#N)=C(NC1CCCCC1)c1cn(C)nc1C(F)F [Compound 1333]
2.37^[a] | C#CCC(C#N)NC(=C(C#N)C(=O)OCC)c1cccnc1Cl (racemic) [Compound 1258]
3.44^[a] | CCOC(=O)C(C#N)=C(NC1CC1c1ccccc1)c1cccnc1Cl (stereo not drawn) [Compound 1068]
3.64^[a] | CCOC(=O)C(C#N)=C(NC(C)c1nccs1)c1ccnc(CC(C)C)c1Cl (stereo not drawn) [Compound 1384]
3.23^[a] | CCOC(=O)C(C#N)=C(NC(C)C(C)C)c1cnn(C)c1C(F)F (stereo not drawn) [Compound 1301]
3.83^[a] | CCOC(=O)C(C#N)=C(NC(C)C1CC1)c1sccc1C(F)(F)F (stereo not drawn) [Compound 883]

Same assay, conditions: pH 7.5

Log P | SMILES
2.98 | CSCC(C)NC(=C(C#N)C(=O)OCC(F)(F)F)c1cccnc1Cl (stereo not drawn) [Compound 585]
